Laboratory results taken from patent publication EP0562480B1, “1-phenyl-5-substituted-1H-1, 2,4-triazole-3-carboxamide derivates, process for preparation of the same, and fungicidal composition comprising the same” (KUREHA CHEMICAL INDUSTRY CO., LTD., priority 1992, dated 1993).

Test system: Botrytis cinerea
Assay: Test for controlling effect against cucumber gray mold
Assay type: in vivo, Botrytis cinerea on cucumber
Conditions: 500 ppm wettable powder spray, 5 ml per pot; cucumber first leaf stage; lesion areas three days after inoculation

Row | SMILES | Inhibition rate (%) at concentration of 500 ppm Cucumber gray mold [%]
1 | CCCCOC(c1cccc(-n2nc(C(N)=O)nc2C2CCCCC2)c1)C(C)C (centres unmarked) [Compound 5, 1-[3-[(1-butoxy-2-methyl)propyl]phenyl]-5-cyclohexyl-1H-1,2,4-triazole-3-carboxamide] | 82
2 | CCCCOC(c1cccc(-n2nc(C(N)=O)nc2Cc2ccccc2)c1)C(C)C (centres unmarked) [Compound 6, 1-[3-[(1-butoxy-2-methyl)propyl]phenyl]-5-(phenylmethyl)-1H-1,2,4-triazole-3-carboxamide] | 80
